We go through 4 molecules from article PMC9117146, “Immunogenicity and therapeutic targeting of a public neoantigen derived from mutated PIK3CA” (Nature Medicine, 2022).

No end group written: not given here. *: point of attachment. 5FAM = O=C1OC2(c3ccc(O)cc3Oc3cc(O)ccc32)c2ccc(C(=O)*)cc21

In assay [1] the target is HLA-A*03:02 (Homo sapiens, UniProt P04439, E176V/L180Q). The experiment in a line: Differential scanning fluorimetry, peptide/HLA complex. Conditions: DSF, SYPRO Orange, 15 μM protein, HBS-EP pH 7.4, representative melt curve (n=3 technical replicates). It is filed as binding.
Procedure: Melting temperatures of WT and Mut PIK3α peptide/HLA-A*03:01 complexes were measured via differential scanning fluorimetry on a StepOnePlus Real-Time PCR System (Applied Biosystems), as previously described[68]. In brief, a 96-well plate was loaded with mixtures of 2 μl of 100× SYPRO Orange Protein Gel Stain (Invitrogen) and 18 μl of target protein at 15 μM in HBS-EP buffer (10 mM HEPES, 150 mM NaCl, 3 mM NaEDTA, 0.005% surfactant P20, pH 7.4). The excitation and emission wavelengths for the measurement were 587 nm and 607 nm, respectively. Temperature was scanned from 20 °C to 95 °C at a rate of 1 °C min^−1. Melting temperatures were determined by fitting the 1st derivative of each melting curve to a bi-Gaussian function in OriginPro.
Assay [2] relates to peptide-pulsed HLA-A*03:01+ target cells. The assay can be described thus: Intracellular TNFα of TCR-transduced T cells with peptide-pulsed HLA-A*03:01+ targets. The assay is classed as cell-based.
Assay [3] has as its target HLA-A*03:01 (heavy chain with β2-microglobulin) (human). The assay can be described thus: fluorescence polarisation; fluorescence anisotropy; dissociation of fluorescein-labeled peptide from 100 nM purified peptide/HLA-A*03:01 complex with 100 μM unlabeled peptide; 37 °C; 20 mM NaH2PO4, 75 mM NaCl, pH 7.4; t1/2 = 0.693/koff of the slowest rate.

With “AHHGGWTTK [pWT, wild-type PI3Kα counterpart peptide]”, in assay [1], the “Tm (melting temperature of peptide/HLA complex)” value amounted to 38.7 oC. With “IVFMGWTTK [peptide derived from transmembrane protein 87B (TM87B), position 407-415]”, the “activation of T cells by peptide (in words)” value in assay [2] is “failed to activate TCR4-transduced T cells”. In the case of “fluorescein-labeled pMut derivative (P5 Gly substituted with a 5-carboxyfluorescein-modified lysine) (peptide)”, in assay [3], the t1/2 of the peptide/HLA complex worked out at 5.5 h.

B1: fluorescein-labeled pWT derivative (P5 Gly substituted with a 5-carboxyfluorescein-modified lysine) (peptide)
peptide: AHHGK(5FAM)WTTK
modifications: also: 5-carboxyfluorescein-modified Lys at P5 (replacing Gly)
Regarding B1, the t1/2 of the peptide/HLA complex in assay [3] is 0.078 h.
